The source of these data is patent publication US7504517B2, “Kv1.5 potassium channel inhibitors” (Wyeth, priority 2006, dated 2009).

By inhibition is commonly meant the change of the read-out against control, counted positive when it falls. As usually defined, the IC50 is the concentration that inhibits the measured activity by half.

The target in series [1] is T1, Kv1.5 (Homo sapiens, UniProt P22460).
T1 construct: expressed in transfected cells; host or cells: HEK or LTK- cells
The experiment in a line: Kv1.5 Patch Clamp EP. The series is classed as cell-based. Particulars: whole cell patch clamp; for IC50: HEK or LTK- cells, at least four concentrations, n=3. On the procedure:
The external solution is standard Tyrodes solution. […] Inhibition was measured at the end of the 1 second pulses and expressed relative to controls. Initial Kv1.5 inhibition is estimated by single point determinations done at 1 μM.
For orientation: Patch clamp records ionic current or voltage across a cell membrane.

Series [2] relates to L-type calcium channels. The experiment in a line: FLIPR L-Type Calcium Channel Assay. The series is classed as cell-based, murine. The note with it: HL-1 cells expressing endogenous L-type calcium channels; calcium influx after 20 mM KCl; read-out: L-type Ca^2+ IC50. On the procedure:
50 μL per well test compounds are added to the plates and further incubated for 15 min. in a 5% CO2 37° C. incubator. All final solutions contain the anion exchange inhibitor, probenecid (2.5 mM). The 96-well plates are then placed in the center position of the FLIPR 1 (Fluorometric Imaging Plate Reader, Molecular Devices Corporation). Cell monolayers in each well are simultaneously illuminated at 488 nm with an Argon ion laser, and fluorescence emission is monitored using a 510-570 nm bandpass filter and a cooled CCD camera. To depolarize the plasma membrane and activate L-type calcium channels, 50 μL per well of 20 mM KCl (final concentration) are dispensed simultaneously to all 96 wells using the FLIPR's automatic 96-well pipettor. Fluorescence measurements are captured for 5 min. following KCl addition. Calcium influx, expressed as % control, is calculated for each concentration of test compound and concentration-response curves and IC50 values are generated using GraphPad Prism 4.0.

The target of series [3] is HERG (Homo sapiens, UniProt Q12809). The experiment in a line: HERG Patch Clamp EP. Particulars: for inhibition at 10 µM: human, HEK cells stably overexpressing HERG.
Sequence of HERG (Q12809 whole entry): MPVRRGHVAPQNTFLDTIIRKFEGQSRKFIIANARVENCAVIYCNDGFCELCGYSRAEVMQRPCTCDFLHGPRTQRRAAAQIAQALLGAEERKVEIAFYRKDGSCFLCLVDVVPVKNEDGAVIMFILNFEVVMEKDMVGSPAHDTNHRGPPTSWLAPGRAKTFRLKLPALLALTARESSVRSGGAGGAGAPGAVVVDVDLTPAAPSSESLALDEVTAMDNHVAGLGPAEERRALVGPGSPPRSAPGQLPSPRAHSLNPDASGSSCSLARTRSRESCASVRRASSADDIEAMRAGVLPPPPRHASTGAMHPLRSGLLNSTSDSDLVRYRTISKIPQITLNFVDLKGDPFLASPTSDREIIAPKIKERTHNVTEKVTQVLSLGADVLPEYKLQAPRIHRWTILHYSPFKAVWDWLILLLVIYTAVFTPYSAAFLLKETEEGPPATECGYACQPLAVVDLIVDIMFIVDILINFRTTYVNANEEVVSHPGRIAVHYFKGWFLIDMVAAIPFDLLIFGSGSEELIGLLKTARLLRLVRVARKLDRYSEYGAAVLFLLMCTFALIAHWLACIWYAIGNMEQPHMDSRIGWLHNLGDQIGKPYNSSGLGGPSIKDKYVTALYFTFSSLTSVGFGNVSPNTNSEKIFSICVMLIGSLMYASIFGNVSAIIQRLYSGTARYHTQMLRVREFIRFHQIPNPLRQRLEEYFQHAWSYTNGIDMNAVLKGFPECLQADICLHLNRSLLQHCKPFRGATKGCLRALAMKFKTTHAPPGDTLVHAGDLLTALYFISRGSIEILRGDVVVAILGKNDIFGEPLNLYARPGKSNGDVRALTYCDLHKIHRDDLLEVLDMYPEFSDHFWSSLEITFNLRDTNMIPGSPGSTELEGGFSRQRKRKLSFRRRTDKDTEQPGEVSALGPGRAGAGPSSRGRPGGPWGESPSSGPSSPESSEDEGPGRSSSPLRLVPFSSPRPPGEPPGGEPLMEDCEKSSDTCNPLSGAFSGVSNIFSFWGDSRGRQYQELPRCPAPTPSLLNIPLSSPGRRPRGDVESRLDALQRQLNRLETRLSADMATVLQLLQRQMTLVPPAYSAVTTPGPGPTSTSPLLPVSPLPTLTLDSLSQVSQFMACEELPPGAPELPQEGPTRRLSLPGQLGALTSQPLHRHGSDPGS
The mark [4] stands for this setting: 1.0 μM, single point, Kv1.5 stably over expressed in HEK or LTK- cells.

T1 sequence (P22460 whole entry): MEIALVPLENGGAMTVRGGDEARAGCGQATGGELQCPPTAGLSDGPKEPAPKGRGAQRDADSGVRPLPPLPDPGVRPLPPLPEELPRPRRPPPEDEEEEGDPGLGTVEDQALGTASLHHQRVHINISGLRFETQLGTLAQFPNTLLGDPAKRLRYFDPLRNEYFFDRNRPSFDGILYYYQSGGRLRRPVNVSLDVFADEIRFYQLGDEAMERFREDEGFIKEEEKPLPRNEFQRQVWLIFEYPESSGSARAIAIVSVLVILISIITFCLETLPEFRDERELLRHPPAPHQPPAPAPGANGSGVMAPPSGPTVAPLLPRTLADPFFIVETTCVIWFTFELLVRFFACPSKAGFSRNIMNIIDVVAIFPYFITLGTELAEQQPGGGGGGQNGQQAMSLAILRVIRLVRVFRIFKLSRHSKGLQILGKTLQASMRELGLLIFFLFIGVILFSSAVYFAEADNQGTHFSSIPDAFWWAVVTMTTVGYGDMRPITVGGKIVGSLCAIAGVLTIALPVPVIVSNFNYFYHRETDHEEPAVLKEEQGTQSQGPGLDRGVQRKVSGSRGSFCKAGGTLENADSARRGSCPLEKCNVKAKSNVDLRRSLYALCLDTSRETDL

In the case of `COc1ccc(C2CN(NS(=O)(=O)Cc3cccnc3)C(=O)N2CCCc2ccccc2)cc1` (stereo not drawn) [Compound 101, 1-[(Pyridin-3-yl)methylsulfonyl]amino-3-(3-phenylpropyl)-4-(4-methoxyphenyl)-2-imidazolidinone], at 1 µM the inhibition in series [1] (setting [4]) was 81%. Further, the IC50 in series [2] came out at 19 µM. Moreover, the inhibition at 10 µM in series [3] is 24%.
For `COc1ccc(CCN2C(=O)N(N(CCn3ccnc3)C(C)=O)CC2c2ccc(C(C)(C)C)cc2)cc1` (stereo not drawn) [Compound 100, 1-N-[2-(Imidazol-1-yl)ethyl]-N-[acetyl]amino-3-[2-(4-methoxyphenyl)ethyl]-4-[(4-tert-butyl)phenyl]-2-imidazolidinone], the inhibition at 1 µM in series [1] (setting [4]) came to 46%. Besides, in series [2], the IC50 turned out to be 16 µM. This compound came in with an inhibition at 10 µM in series [3] of 92%.
For the compound `COc1ccc(CCN2C(=O)N(NS(=O)(=O)Cc3cccnc3)CC2c2ccc(OC(F)F)cc2)cc1` (stereo not drawn) [Compound 42, 1-[(N-3-Pyridinylmethylsulfonyl)amino]-3-[2-(4-methoxyphenyl)ethyl]-4-(4-difluoromethoxyphenyl)-2-imidazolidinone], in series [1] (setting [4]), at 1 µM the inhibition was 91%. The results for the IC50 in series [1] and in series [2] were 0.418 µM and 20 µM, respectively. In addition, the inhibition at 10 µM in series [3] was 90%.
Regarding `COc1ccc(CCN2C(=O)N(NCc3ccc(N(C)C)cc3)CC2c2ccc(C)c(C)c2)cc1` (stereo not drawn) [Compound 92, 1-[(4-(Dimethylamino)phenylmethyl)amino]-3-[2-(4-methoxyphenyl)ethyl]-4-(3,4-dimethylphenyl)-2-imidazolidinone], the inhibition at 1 µM in series [1] (setting [4]) stood at 95%. The values for the IC50 in series [1], in series [2] and in series [3] were 0.353 µM, 30 µM and 5.6 µM, respectively. In series [3], this compound returned an inhibition at 10 µM of 58%.
In the same order, the values of `COc1ccc(CCN2C(=O)N(NS(C)(=O)=O)CC2c2ccc(OC)cc2)cc1` (stereo not drawn) [Compound 23, 1-(Methylsulfonylamino)-3-[2-(4-methoxyphenyl)ethyl]-4-(4-methoxyphenyl)-2-imidazolidinone] are 66%, 0.703 µM, 30 µM, 23.6 µM and 21%.
The compound `COc1ccc(CCN2C(=O)N(NCc3ccc(-n4ccnc4)cc3)CC2c2ccc(C)c(C)c2)cc1` (stereo not drawn) [Compound 98, 1-[(4-(1H-imidazol-1-yl)phenylmethyl)amino]-3-[2-(4-methoxyphenyl)ethyl]-4-(3,4-dimethylphenyl)-2-imidazolidinone] registered an inhibition at 1 µM in series [1] (setting [4]) of 83%. Moreover, the half-inhibitory concentration (IC50) in series [2] was found to be 4.8 µM.
`CCC1(CC)CN(NS(C)(=O)=O)C(=O)N1CCc1ccc(OC)cc1` [Compound 111, N-{4,4-diethyl-3-[2-(4-methoxyphenyl)ethyl]-2-oxoimidazolidin-1-yl}methanesulfonamide] came in with an inhibition at 1 µM in series [1] (setting [4]) of 9%. Also, the inhibition at 10 µM in series [3] is 33%.
`COc1ccc(CCN2C(=O)N(NC(=O)C3CC3)CC2c2ccc(C)c(C)c2)cc1` (stereo not drawn) [Compound 72, Cyclopropanecarboxylic acid N-{3-[2-(4-methoxyphenyl)ethyl]-4-(3,4-dimethylphenyl)-2-oxo-imidazolidin-1-yl}-amide]: in series [1] (setting [4]), the inhibition at 1 µM came out at 81%. Also, the IC50 in series [2] was 18 µM.
In the same order, the values of `COc1ccc(CCN2C(=O)N(NCc3ccc(N(C)C)cc3)CC2c2ccc(C(C)(C)C)cc2)cc1` (stereo not drawn) [Compound 91, 1-[(4-(Dimethylamino)phenylmethyl)amino]-3-[2-(4-methoxyphenyl)ethyl]-4-[4-(tert-butyl)phenyl]-2-imidazolidinone] are 85% and 4 µM.
In turn, `CCCCS(=O)(=O)NN1CC(c2ccc(C3CC3)cc2)N(CCc2ccc(OC)cc2)C1=O` (stereo not drawn) [Compound 31, 1-(Butylsulfonylamino)-3-[(4-methoxyphenyl)ethyl]-4-(4-cyclopropylphenyl)-2-imidazolidinone] registered an inhibition at 1 µM in series [1] (setting [4]) of 84%. For the same compound, the half-inhibitory concentration (IC50) in series [2] is 4 µM.
For `CCCCS(=O)(=O)NN1CC(c2ccc(C(C)(C)C)cc2)N(CCc2ccc(OC)cc2)C1=O` (stereo not drawn) [Compound 32, 1-(Butylsulfonylamino)-3-[(4-methoxyphenyl)-ethyl]-4-[4-(tert-butyl)phenyl]-2-imidazolidinone] the same measures were 69% and 6.7 µM.
In the same order, the values of `COc1ccc(CCN2C(=O)N(N)CC2c2ccc(C)c(C)c2)cc1` (stereo not drawn) [Compound 1, 1-Amino-3-[2-(4-methoxyphenyl)ethyl]-4-(3,4-dimethylphenyl)-2-imidazolidinone] are 59% and 5.5 µM.
Take `COc1ccc(CCN2C(=O)N(NS(C)(=O)=O)CC2C2CCCCC2)cc1` (stereo not drawn) [Compound 145, N-{4-cyclohexyl-3-[2-(4-methoxyphenyl)ethyl]-2-oxoimidazolidin-1-yl}methanesulfonamide]: in series [1] (setting [4]), the inhibition at 1 µM was determined as 16%. The same compound registered an inhibition at 10 µM in series [3] of 11%.
The compound `COc1ccc(CCN2C(=O)N(NCCc3ccccc3)CC2c2ccc(C)c(C)c2)cc1` (stereo not drawn) [Compound 97, 1-[(Phenylethyl)amino]-3-[2-(4-methoxyphenyl)ethyl]-4-(3,4-dimethylphenyl)-2-imidazolidinone] had an inhibition at 1 µM in series [1] (setting [4]) of 81%. The IC50 in series [2] is 3.5 µM.
Compound `CCCCC1CN(NS(C)(=O)=O)C(=O)N1CCc1ccc(OC)cc1` (stereo not drawn) [Compound 128, N-{4-butyl-3-[2-(4-methoxyphenyl)ethyl]-2-oxoimidazolidin-1-yl}methanesulfonamide] yielded an inhibition at 1 µM in series [1] (setting [4]) of 8%. Also, testing at 10 µM in series [3] gave an inhibition of 19%.
The compound `COc1ccc(CCN2C(=O)N(NC(=O)c3ccco3)CC2c2ccc(C)c(C)c2)cc1` (stereo not drawn) [Compound 74, 1-(2-Furanoylamino)-3-[2-(4-Methoxyphenyl)ethyl]-4-(3,4-dimethylphenyl)-2-imidazolidinone] yielded an inhibition at 1 µM in series [1] (setting [4]) of 85%. The 50% inhibitory concentration (IC50) in series [2] came out at 25 µM.
In the same order, the values of `COc1ccc(CCN2C(=O)N(NS(=O)(=O)CCl)CC2c2ccc(C(C)(C)C)cc2)cc1` (stereo not drawn) [Compound 39, 1-(Chloromethylsulfonylamino)-3-[2-(4-methoxyphenyl)ethyl]-4-(4-tert-butyl-phenyl)-2-imidazolidinone] are 81% and 12 µM.
In the same order, the values of `COc1ccc(CCN2C(=O)N(NC(=O)c3ccno3)CC2c2ccc(C)c(C)c2)cc1` (stereo not drawn) [Compound 78, 1-(Isoxazol-5-ylcarbonylamino)-3-[2-(4-methoxyphenyl)-ethyl]-4-(3,4-dimethylphenyl)-2-imidazolidinone] are 75% and 11 µM.
In series [1] (setting [4]), `COC(=O)c1ccc(NN2CC(c3ccc(C)c(C)c3)N(CCc3ccc(OC)cc3)C2=O)c(N)c1` (stereo not drawn) [Compound 135, methyl 3-amino-4-({4-(3,4-dimethylphenyl)-3-[2-(4-methoxyphenyl)ethyl]-2-oxoimidazolidin-1-yl}amino)benzoate] gave an inhibition at 1 µM of 53%. The IC50 in series [2] amounted to 8 µM.
As for `COc1ccc(CCN2C(=O)N(NC(=O)CN(C)Cc3ccccc3)CC2c2ccc(C(C)(C)C)cc2)cc1` (stereo not drawn) [Compound 81, 2-(Benzylmethylamino)-N-{4-[4-(tert-butyl)phenyl]-3-[2-(4-methoxyphenyl)-ethyl]-2-oxo-imidazolidin-1-yl}-acetamide], testing at 1 µM in series [1] (setting [4]) gave an inhibition of 78%. Also, the IC50 in series [2] is 4 µM.
For `COc1ccc(CCN2C(=O)N(NCc3ccccc3)CC2c2ccc(C(C)(C)C)cc2)cc1` (stereo not drawn) [Compound 87, 1-Benzylamino-3-[2-(4-methoxyphenyl)ethyl]-4-[4-(tert-butyl)phenyl]-2-imidazolidinone] the same measures were 57% and 6 µM.
“tert-butyl [2-({4-(4-tert-butylphenyl)-3-[2-(4-methoxyphenyl)ethyl]-2-oxoimidazolidin-1-yl}amino)-2-oxoethyl]methylcarbamate [Compound 109]”: in series [1] (setting [4]), the “Kv1.5% inhibition @ 1.0 μM” value is 71%. Further, the IC50 in series [2] came to 4.6 µM.
The compound `COc1ccc(CCN2C(=O)N(NS(C)(=O)=O)CC2c2ccc(Cl)cc2)cc1` (stereo not drawn) [Compound 21, 1-(Methylsulfonylamino)-3-[2-(4-methoxyphenyl)ethyl]-4-(4-chlorophenyl)-2-imidazolidinone] gave an inhibition at 1 µM in series [1] (setting [4]) of 72%. Besides, the IC50 in series [2] is 26 µM.
In the same order, the values of `COc1ccc(CCN2C(=O)N(NS(=O)(=O)CC(=O)N(C)C)CC2c2ccc(OC)cc2)cc1` (stereo not drawn) [Compound 55, 1-[[2-(Dimethylamino)-2-oxoethyl]sulfonylamino]-3-[2-(4-methoxyphenyl)-ethyl]-4-(4-methoxyphenyl)-2-imidazolidinone] are 29% and 29 µM.
In turn, `COc1ccc(C2CN(NS(C)(=O)=O)C(=O)N2CCc2ccc(OC(F)F)cc2)cc1` (stereo not drawn) [Compound 142, N-[3-{2-[4-(difluoromethoxy)phenyl]ethyl}-4-(4-methoxyphenyl)-2-oxoimidazolidin-1-yl]methanesulfonamide] yielded an inhibition at 1 µM in series [1] (setting [4]) of 40%. The compound further registered an inhibition at 10 µM in series [3] of 91%.
